Assay results: the supplement of paper PMC10307832

Key:
Assay in all cases: relative viability (nuclei count vs DMSO), 5 days (fraction); higher = more cells survive
[1] = compound: C1=CC=C2C(=C1)C=CC(=C2SSC3=C(C=CC4=CC=CC=C43)O)O [IPA-3] + CC(=O)Nc1cccc(-n2c(=O)n(C3CC3)c(=O)c3c(Nc4ccc(I)cc4F)n(C)c(=O)c(C)c32)c1 [Trametinib] (partner 0.02 µM)
How it was run: (§1)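 Lung cancer cell lines were pin-tool dosed in 1536-well plates on the day after seeding, with either a lone drug or a fixed anchor-drug dose plus five library-drug doses (not always all listed) in √10 steps. Nuclei were counted on 4× images after 5 days. Relative viability is the ratio of treated-well to vehicle-well nuclei counts, with each value a median of duplicate plates.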

[2] = compound: C1=CC=C2C(=C1)C=CC(=C2SSC3=C(C=CC4=CC=CC=C43)O)O [IPA-3] + CS(=O)(=O)N1CCN(Cc2cc3nc(-c4cccc5[nH]ncc45)nc(N4CCOCC4)c3s2)CC1 [Pictilisib] (partner 1 µM)
How it was run: as §1

[3] = compound: Cc1ccc(-n2nc(C(C)(C)C)cc2NC(=O)Nc2ccc(OCCN3CCOCC3)c3ccccc23)cc1 [Doramapimod] + Cc1nc(NC(=O)N2CCC[C@H]2C(N)=O)sc1-c1ccnc(C(C)(C)C(F)(F)F)c1 [Alpelisib] (partner 2 µM)
How it was run: as §1

[4] = compound: Cn1c(Nc2ccc(C(F)(F)F)cc2)nc2cc(Oc3ccnc(-c4ncc(C(F)(F)F)[nH]4)c3)ccc21 [RAF265] + N=C(N)NC(=N)NCCc1ccccc1 [Phenformin] (partner 250 µM)
How it was run: as §1

LCLC-97TM1
relative viability ([1]; first compound 0.2 µM): 0.221
relative viability ([1]; first compound 0.6325 µM): 0.206
relative viability ([1]; first compound 2 µM): 0.205
relative viability ([1]; first compound 6.325 µM): 0.218
relative viability ([1]; first compound 20 µM): 0.223
relative viability ([2]; first compound 0.2 µM): 0.195
relative viability ([2]; first compound 0.6325 µM): 0.165
relative viability ([2]; first compound 2 µM): 0.198
relative viability ([2]; first compound 6.325 µM): 0.216
relative viability ([2]; first compound 20 µM): 0.175
relative viability ([3]; first compound 0.02 µM): 0.205
relative viability ([3]; first compound 0.06325 µM): 0.221
relative viability ([3]; first compound 0.2 µM): 0.275
relative viability ([3]; first compound 0.6325 µM): 0.266
relative viability ([3]; first compound 2 µM): 0.212
relative viability ([4]; first compound 0.01 µM): 0.42
relative viability ([4]; first compound 0.03162 µM): 0.384
relative viability ([4]; first compound 0.1 µM): 0.21
relative viability ([4]; first compound 0.3162 µM): 0.252
relative viability ([4]; first compound 1 µM): 0.148

LCLC-103H
relative viability ([1]; first compound 0.2 µM): 0.693
relative viability ([1]; first compound 0.6325 µM): 0.686
relative viability ([1]; first compound 2 µM): 0.718
relative viability ([1]; first compound 6.325 µM): 0.687
relative viability ([1]; first compound 20 µM): 0.675
relative viability ([2]; first compound 0.2 µM): 0.572
relative viability ([2]; first compound 0.6325 µM): 0.596
relative viability ([2]; first compound 2 µM): 0.533
relative viability ([2]; first compound 6.325 µM): 0.578
relative viability ([2]; first compound 20 µM): 0.705
relative viability ([3]; first compound 0.02 µM): 0.998
relative viability ([3]; first compound 0.06325 µM): 0.917
relative viability ([3]; first compound 0.2 µM): 0.961
relative viability ([3]; first compound 0.6325 µM): 0.966
relative viability ([3]; first compound 2 µM): 0.973
relative viability ([4]; first compound 0.01 µM): 0.333
relative viability ([4]; first compound 0.03162 µM): 0.346
relative viability ([4]; first compound 0.1 µM): 0.305
relative viability ([4]; first compound 0.3162 µM): 0.319
relative viability ([4]; first compound 1 µM): 0.285

LK-2
relative viability ([1]; first compound 0.2 µM): 0.904
relative viability ([1]; first compound 0.6325 µM): 0.752
relative viability ([1]; first compound 2 µM): 0.721
relative viability ([1]; first compound 6.325 µM): 0.846
relative viability ([1]; first compound 20 µM): 0.934
relative viability ([2]; first compound 0.2 µM): 0.47
relative viability ([2]; first compound 0.6325 µM): 0.572
relative viability ([2]; first compound 2 µM): 0.708
relative viability ([2]; first compound 6.325 µM): 0.646
relative viability ([2]; first compound 20 µM): 0.695
relative viability ([3]; first compound 0.02 µM): 1.03
relative viability ([3]; first compound 0.06325 µM): 0.906
relative viability ([3]; first compound 0.2 µM): 0.751
relative viability ([3]; first compound 0.6325 µM): 0.737
relative viability ([3]; first compound 2 µM): 0.76
relative viability ([4]; first compound 0.01 µM): 0.445
relative viability ([4]; first compound 0.03162 µM): 0.417
relative viability ([4]; first compound 0.1 µM): 0.385
relative viability ([4]; first compound 0.3162 µM): 0.63
relative viability ([4]; first compound 1 µM): 0.402

LOU-NH91
relative viability ([1]; first compound 0.2 µM): 0.79
relative viability ([1]; first compound 0.6325 µM): 0.757
relative viability ([1]; first compound 2 µM): 0.805
relative viability ([1]; first compound 6.325 µM): 0.779
relative viability ([1]; first compound 20 µM): 0.852
relative viability ([2]; first compound 0.2 µM): 0.505
relative viability ([2]; first compound 0.6325 µM): 0.501
relative viability ([2]; first compound 2 µM): 0.567
relative viability ([2]; first compound 6.325 µM): 0.523
relative viability ([2]; first compound 20 µM): 0.57
relative viability ([3]; first compound 0.02 µM): 0.794
relative viability ([3]; first compound 0.06325 µM): 0.728
relative viability ([3]; first compound 0.2 µM): 0.728
relative viability ([3]; first compound 0.6325 µM): 0.893
relative viability ([3]; first compound 2 µM): 0.574
relative viability ([4]; first compound 0.01 µM): 0.86
relative viability ([4]; first compound 0.03162 µM): 0.639
relative viability ([4]; first compound 0.1 µM): 0.721
relative viability ([4]; first compound 0.3162 µM): 0.64
relative viability ([4]; first compound 1 µM): 0.52

LU99A
relative viability ([1]; first compound 0.2 µM): 0.608
relative viability ([1]; first compound 0.6325 µM): 0.551
relative viability ([1]; first compound 2 µM): 0.502
relative viability ([1]; first compound 6.325 µM): 0.553
relative viability ([1]; first compound 20 µM): 0.514
relative viability ([2]; first compound 0.2 µM): 0.353
relative viability ([2]; first compound 0.6325 µM): 0.317
relative viability ([2]; first compound 2 µM): 0.333
relative viability ([2]; first compound 6.325 µM): 0.321
relative viability ([2]; first compound 20 µM): 0.277
relative viability ([3]; first compound 0.02 µM): 0.523
relative viability ([3]; first compound 0.06325 µM): 0.484
relative viability ([3]; first compound 0.2 µM): 0.486
relative viability ([3]; first compound 0.6325 µM): 0.484
relative viability ([3]; first compound 2 µM): 0.441
relative viability ([4]; first compound 0.01 µM): 0.817
relative viability ([4]; first compound 0.03162 µM): 0.821
relative viability ([4]; first compound 0.1 µM): 0.679
relative viability ([4]; first compound 0.3162 µM): 0.571
relative viability ([4]; first compound 1 µM): 0.375

LXF-289
relative viability ([1]; first compound 0.2 µM): 0.714
relative viability ([1]; first compound 0.6325 µM): 0.646
relative viability ([1]; first compound 2 µM): 0.668
relative viability ([1]; first compound 6.325 µM): 0.662
relative viability ([1]; first compound 20 µM): 0.762
relative viability ([2]; first compound 0.2 µM): 0.85
relative viability ([2]; first compound 0.6325 µM): 0.703
relative viability ([2]; first compound 2 µM): 0.772
relative viability ([2]; first compound 6.325 µM): 0.791
relative viability ([2]; first compound 20 µM): 0.918
relative viability ([3]; first compound 0.02 µM): 1.03
relative viability ([3]; first compound 0.06325 µM): 0.992
relative viability ([3]; first compound 0.2 µM): 1.01
relative viability ([3]; first compound 0.6325 µM): 1.02
relative viability ([3]; first compound 2 µM): 0.956
relative viability ([4]; first compound 0.01 µM): 0.52
relative viability ([4]; first compound 0.03162 µM): 0.526
relative viability ([4]; first compound 0.1 µM): 0.476
relative viability ([4]; first compound 0.3162 µM): 0.372
relative viability ([4]; first compound 1 µM): 0.338

NCI-H23
relative viability ([1]; first compound 0.2 µM): 0.379
relative viability ([1]; first compound 0.6325 µM): 0.379
relative viability ([1]; first compound 2 µM): 0.342
relative viability ([1]; first compound 6.325 µM): 0.383
relative viability ([1]; first compound 20 µM): 0.443
relative viability ([2]; first compound 0.2 µM): 0.672
relative viability ([2]; first compound 0.6325 µM): 0.531
relative viability ([2]; first compound 2 µM): 0.473
relative viability ([2]; first compound 6.325 µM): 0.509
relative viability ([2]; first compound 20 µM): 0.611
relative viability ([3]; first compound 0.02 µM): 0.711
relative viability ([3]; first compound 0.06325 µM): 0.64
relative viability ([3]; first compound 0.2 µM): 0.753
relative viability ([3]; first compound 0.6325 µM): 0.867
relative viability ([3]; first compound 2 µM): 0.59
relative viability ([4]; first compound 0.01 µM): 0.754
relative viability ([4]; first compound 0.03162 µM): 0.749
relative viability ([4]; first compound 0.1 µM): 0.669
relative viability ([4]; first compound 0.3162 µM): 0.544
relative viability ([4]; first compound 1 µM): 0.59

NCI-H322M
relative viability ([1]; first compound 0.2 µM): 0.459
relative viability ([1]; first compound 0.6325 µM): 0.481
relative viability ([1]; first compound 2 µM): 0.567
relative viability ([1]; first compound 6.325 µM): 0.453
relative viability ([1]; first compound 20 µM): 0.581
relative viability ([2]; first compound 0.2 µM): 0.501
relative viability ([2]; first compound 0.6325 µM): 0.272
relative viability ([2]; first compound 2 µM): 0.508
relative viability ([2]; first compound 6.325 µM): 0.481
relative viability ([2]; first compound 20 µM): 0.572
relative viability ([3]; first compound 0.02 µM): 0.774
relative viability ([3]; first compound 0.06325 µM): 0.734
relative viability ([3]; first compound 0.2 µM): 0.785
relative viability ([3]; first compound 0.6325 µM): 0.801
relative viability ([3]; first compound 2 µM): 0.933
relative viability ([4]; first compound 0.01 µM): 0.759
relative viability ([4]; first compound 0.03162 µM): 0.815
relative viability ([4]; first compound 0.1 µM): 0.44
relative viability ([4]; first compound 0.3162 µM): 0.366
relative viability ([4]; first compound 1 µM): 0.269
